Experimental data as given in publication PMC8591608, “DNDI-6148: A Novel Benzoxaborole Preclinical Candidate for the Treatment of Visceral Leishmaniasis” (Journal of Medicinal Chemistry, 2021).
Where “and” joins values, the source holds several entries; their conditions need not be identical. Equal values may be shown once.

Experiments:
[1] = system: L. donovani clones, CPSF3 Asn219His; test: Drug sensitivity, L. donovani CRISPR-Cas9 edited CPSF3 Asn219His; assay type: cell-based; settings: listed as DNDI-6148
Method: (§1) A cell line constitutively expressing Cas9 and T7 RNA polymerase was generated by transfecting 4 × 10^7 promastigotes with the pTB007 vector (10 μg), as previously described.[29] Expression of Cas9 in selected clones was confirmed by western blotting (Figure S1). In addition, the CRISPR-Cas9 system in these parasites was confirmed as functional following the successful tagging of the flagellar protein PF16 with mNeonGreen, as previously described.[29]
(§2) To introduce specific mutations into CPSF3, 3 × 10^6 promastigotes expressing Cas9 and T7 RNA were resuspended in a 110 μL of Human T-Cell Nucleofector reagent and transfected with 18 μL of sgRNA and 4 μg of template using the Amaxa Nucleofector electroporator (program V-033). sgRNA was produced according to the previously established protocol from the Gluenz lab,[30] in which the scaffold primer G00 and a gene-specific forward primer (FwsgRNA) were used (Table S1). Twenty-four hours following transfection, DNDI-6148 was added to cultures at 6 μM. Drug-selected populations were cloned by limiting dilution, EC50s were determined, and genomic DNA was extracted. The CPSF3 gene from CRISPR-edited parasites was amplified by PCR, and the resulting products were sequenced.
(§3) Drug sensitivity assays with wild-type and transgenic T. brucei and L. donovani cell lines were carried out as previously described.[31],[32]

[2] = Plasma-protein binding, hamster; assay type: in vitro ADME; settings: golden (Syrian), pH 7.4
Method: (§4) Tests were conducted by WuXi AppTec, Co., China, using the equilibrium dialysis method and a 96-well plate format. The test compound (at 2 μM, in triplicate) in solution in plasma (Balb/c mouse, golden (Syrian) hamster, Sprague-Dawley rat, Beagle dog or human) was dialyzed against 100 mM phosphate-buffered saline (pH 7.4) on a rotating plate incubated for 6 h at 37 °C. Following the precipitation of protein with acetonitrile or acetonitrile/methanol containing both 1% phosphoric acid, the amount of compound present in each compartment was quantified by LC-MS/MS.

hERG potassium channels = biological target: T1, hERG potassium channels (Homo sapiens, UniProt Q12809); test: hERG inhibition, automated patch-clamp; assay type: cell-based; settings: at 30 μM
T1 construct: expressed in transfected cells; host or cells: Chinese hamster ovary (CHO) cells
Method: An automated patch-clamp method (QPatch HTX) was used by WuXi AppTec, China. Chinese hamster ovary cells expressing hERG potassium channels were incubated at room temperature with test compounds (0.12, 0.37, 1.11, 3.33, 10, and 30 μM, in triplicate) or amitriptyline as a positive control.

[3] = system: L. infantum and L. donovani; test: Hamster models of infection (summary statement); settings: in vivo efficacy in hamster models of infection
Text: Female golden hamsters were randomly allocated to experimental groups of six animals each, based on body weight. At the start of the experiment (Day 0), each animal was infected with L. infantum or L. donovani inoculum, delivered by intracardial injection. Six hamsters were assigned to the vehicle-treated, infected control group. Six hamsters were assigned per group (1 group/compound) for the evaluation of compound and miltefosine. At Day 21 postinfection (21 dpi), all animals in each group were dosed orally for five (or ten) consecutive days (21–25 dpi): compound was dosed at 25–50 mg/kg b.i.d.; miltefosine was dosed at 40 mg/kg q.d. At Day 35 (10 days after the final oral dose), all animals were euthanized and autopsies were conducted. The study evaluated the following parameters. • 1. Adverse effects: all animals were observed daily for the occurrence/presence of adverse effects. • 2. […] Parasite burden: amastigote burdens in each target organ (liver, spleen, and bone marrow) were determined at Day 35. […] Impression smears were stained with Giemsa for microscopic examination of the total amastigote burden, defined as the mean number of amastigotes per cell multiplied by the number of cells counted (minimum 500 nuclei); the results were expressed as a percentage reduction in amastigote burden compared to vehicle-treated, infected control animals.

[4] = Plasma-protein binding, rat; assay type: in vitro ADME; settings: Sprague-Dawley, pH 7.4
Method: as §4

MDR1 = test: in vitro; assay type: in vitro ADME; settings: dog
Method: Bidirectional permeability tests with MDCK-MDR1 cells were performed by WuXi AppTec, Co., China. The test compound, at a concentration of 2 μM in 0.4% DMSO/HBSS buffer with 10 mM HEPES pH 7.4, was applied to the apical or basolateral side of the cell monolayer. Permeation of the compound from A to B direction or B to A direction was determined in triplicate over a 150 min incubation at 37 °C and 5% CO2 (95% humidity). Test and reference compounds were quantified by LC-MS/MS analysis based on the peak area ratio of analyte/internal standard.

[5] = system: Salmonella typhimurium strains (TA98 and TA100); test: Mini-Ames reverse mutation screen; assay type: cell-based; settings: TA98 and TA100, with and without metabolic activation, 1.5 to 1000 μg/well
Method: Mini-Ames reverse mutation screens were conducted by WuXi AppTec, Co., China. Two Salmonella typhimurium strains (TA98 and TA100) were employed, both in the presence and absence of metabolic activation (induced rat liver S9). Test compounds were assessed at doses of 1.5, 4, 10, 25, 64, 160, 400, and 1000 μg per well, 2-aminoanthracene, 2-nitrofluorene, and sodium azide were used as positive controls, and the negative control was DMSO.

[6] = system: wild-type L. donovani promastigotes; test: Drug sensitivity, wild-type L. donovani promastigotes; assay type: cell-based; settings: Leishmania donovani, Figure 2D
Method: The clonal L. donovani cell line LdBOB (derived from MHOM/SD/62/1S-CL2D) was grown as promastigotes at 28 °C, as described previously. Bloodstream form T. brucei MiTat 1.2 clone 221a and its derived subline, 2T1, were cultured at 37 °C in the presence of 5% CO2 in HMI9-T medium, as described previously. T. brucei cell lines overexpressing CPSF3 and overexpressing a mutated version of CPSF3 (Asn232His) were generated as part of a previous study and cultured as described.[19]
as §3

[7] = system: L. donovani clones, CPSF3 Asn219His/Glu229Val; test: Drug sensitivity, L. donovani CRISPR-Cas9 edited CPSF3 Asn219His/Glu229Val; assay type: cell-based
Method: as §1, §2, §3

[8] = Plasma-protein binding, mouse; assay type: in vitro ADME; settings: Balb/c, pH 7.4
Method: as §4

in vivo = settings: both, Sprague-Dawley, rat

T1 sequence (Q12809 whole entry): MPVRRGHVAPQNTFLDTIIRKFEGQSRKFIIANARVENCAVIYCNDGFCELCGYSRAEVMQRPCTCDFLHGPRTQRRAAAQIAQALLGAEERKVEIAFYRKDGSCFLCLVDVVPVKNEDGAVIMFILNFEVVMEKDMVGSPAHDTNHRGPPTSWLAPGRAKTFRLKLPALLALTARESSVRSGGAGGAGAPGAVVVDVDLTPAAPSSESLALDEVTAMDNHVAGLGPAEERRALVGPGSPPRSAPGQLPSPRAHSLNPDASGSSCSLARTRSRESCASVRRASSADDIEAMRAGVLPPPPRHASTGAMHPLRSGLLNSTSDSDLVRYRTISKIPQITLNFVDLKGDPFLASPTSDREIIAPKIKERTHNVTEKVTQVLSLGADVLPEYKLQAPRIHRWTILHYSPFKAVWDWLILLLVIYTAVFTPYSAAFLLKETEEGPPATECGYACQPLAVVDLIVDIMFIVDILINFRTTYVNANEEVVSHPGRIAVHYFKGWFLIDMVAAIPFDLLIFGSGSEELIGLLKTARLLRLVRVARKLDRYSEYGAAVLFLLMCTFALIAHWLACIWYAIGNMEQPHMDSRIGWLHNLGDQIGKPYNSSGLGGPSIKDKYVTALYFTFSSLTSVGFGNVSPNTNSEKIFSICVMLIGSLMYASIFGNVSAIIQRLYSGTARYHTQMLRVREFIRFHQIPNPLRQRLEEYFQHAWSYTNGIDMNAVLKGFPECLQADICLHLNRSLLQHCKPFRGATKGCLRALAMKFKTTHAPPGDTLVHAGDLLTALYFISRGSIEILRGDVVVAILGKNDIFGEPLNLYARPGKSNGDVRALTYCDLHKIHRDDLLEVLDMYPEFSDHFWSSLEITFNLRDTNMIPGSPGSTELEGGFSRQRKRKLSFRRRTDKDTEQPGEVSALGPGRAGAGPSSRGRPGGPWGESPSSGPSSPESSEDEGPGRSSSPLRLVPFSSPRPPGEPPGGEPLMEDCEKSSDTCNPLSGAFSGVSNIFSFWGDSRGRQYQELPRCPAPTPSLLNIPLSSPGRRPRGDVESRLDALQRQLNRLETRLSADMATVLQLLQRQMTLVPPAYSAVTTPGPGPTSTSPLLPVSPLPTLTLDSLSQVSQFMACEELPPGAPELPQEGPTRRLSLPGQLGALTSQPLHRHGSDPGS

Cc1c(C(=O)Nc2ccc3c(c2)B(O)OC3)nnn1-c1ccccn1 [Compound 23, N-(1-Hydroxy-1,3-dihydrobenzo[c][1,2]oxaborol-6-yl)-5-methyl-1-(pyridin-2-yl)-1H-1,2,3-triazole-4-carboxamide]
Fold change (relative to WT) [1]: 3.0 fold and 3 fold | fraction unbound at 6 h, 2 µM [2]: 0.12 | hERG inhibition (hERG potassium channels): < 20% | reduction in parasite burden [3]: > 98% | fraction unbound at 6 h, 2 µM [4]: 0.08 | Papp A→B at 150 min, 2 μM (MDR1; MDCK-MDR1, pH 7.4): 17.1 ×10⁻⁶ cm/s | Papp B→A at 150 min, 2 μM (MDR1; MDCK-MDR1, pH 7.4): 11.6 ×10⁻⁶ cm/s | efflux ratio at 150 min, 2 μM (MDR1; MDCK-MDR1, pH 7.4): 0.68 | efflux ratio at 2.5 h, 2 µM (MDR1; MDCK-MDR1, pH 7.4): 0.7 | recovery at 150 min, 2 μM (MDR1; MDCK-MDR1, pH 7.4, Mean total recovery A to B): 71.1% | recovery at 150 min, 2 μM (MDR1; MDCK-MDR1, pH 7.4, Mean total recovery B to A): 87.8% | Ames assay result [5]: negative | EC50 [6]: 0.411 ± 0.012 µM | Fold change (relative to WT) ([7]; CRISPR-Cas9 edited Asn219His/Glu229Val, listed as DNDI-6148): > 5 fold | EC50 ([7]; Leishmania donovani): 2830 ± 139 µM | fraction unbound at 6 h, 2 µM [8]: 0.07

Cc1c(-c2ccccn2)coc1C(=O)Nc1ccc2c(c1)B(O)OC2 [Compound 28, N-(1-Hydroxy-1,3-dihydrobenzo[c][1,2]oxaborol-6-yl)-3-methyl-4-(pyridin-2-yl)furan-2-carboxamide]
NOAEL at 14 days (in vivo): < 12.5 mg/kg
